Among the data in article PMC11208024, “Cholestenoic acid as endogenous epigenetic regulator decreases hepatocyte lipid accumulation in vitro and in vivo” (American Journal of Physiology - Gastrointestinal and Liver …, 2023) are inhibition, IC50 and EC50 values, retold here.

What all share (assay type): biochemical
Assay [1] addresses T1, DNA methyltransferases 1 (DNMT1) (Homo sapiens, UniProt P26358). Description: positive control in radiometric DNMT1 assay; […] inhibition at […].
A further assay addresses DNMT3a (Homo sapiens, UniProt Q9Y6K1). Description: radiometric methyltransferase assay with recombinant enzyme, Lambda DNA substrate and 3H-SAM.
The next assay concerns the target DNMT3b (Homo sapiens, UniProt Q9UBC3). Described as above.
The target of assay [2] is T1, DNA methyltransferases 1 (DNMT1). Description: radiometric methyltransferase assay with recombinant enzyme, poly(dI-dC) and 3H-SAM; activation at low, inhibition at higher concentration (IC50 […]).

T1 sequence (P26358 whole entry): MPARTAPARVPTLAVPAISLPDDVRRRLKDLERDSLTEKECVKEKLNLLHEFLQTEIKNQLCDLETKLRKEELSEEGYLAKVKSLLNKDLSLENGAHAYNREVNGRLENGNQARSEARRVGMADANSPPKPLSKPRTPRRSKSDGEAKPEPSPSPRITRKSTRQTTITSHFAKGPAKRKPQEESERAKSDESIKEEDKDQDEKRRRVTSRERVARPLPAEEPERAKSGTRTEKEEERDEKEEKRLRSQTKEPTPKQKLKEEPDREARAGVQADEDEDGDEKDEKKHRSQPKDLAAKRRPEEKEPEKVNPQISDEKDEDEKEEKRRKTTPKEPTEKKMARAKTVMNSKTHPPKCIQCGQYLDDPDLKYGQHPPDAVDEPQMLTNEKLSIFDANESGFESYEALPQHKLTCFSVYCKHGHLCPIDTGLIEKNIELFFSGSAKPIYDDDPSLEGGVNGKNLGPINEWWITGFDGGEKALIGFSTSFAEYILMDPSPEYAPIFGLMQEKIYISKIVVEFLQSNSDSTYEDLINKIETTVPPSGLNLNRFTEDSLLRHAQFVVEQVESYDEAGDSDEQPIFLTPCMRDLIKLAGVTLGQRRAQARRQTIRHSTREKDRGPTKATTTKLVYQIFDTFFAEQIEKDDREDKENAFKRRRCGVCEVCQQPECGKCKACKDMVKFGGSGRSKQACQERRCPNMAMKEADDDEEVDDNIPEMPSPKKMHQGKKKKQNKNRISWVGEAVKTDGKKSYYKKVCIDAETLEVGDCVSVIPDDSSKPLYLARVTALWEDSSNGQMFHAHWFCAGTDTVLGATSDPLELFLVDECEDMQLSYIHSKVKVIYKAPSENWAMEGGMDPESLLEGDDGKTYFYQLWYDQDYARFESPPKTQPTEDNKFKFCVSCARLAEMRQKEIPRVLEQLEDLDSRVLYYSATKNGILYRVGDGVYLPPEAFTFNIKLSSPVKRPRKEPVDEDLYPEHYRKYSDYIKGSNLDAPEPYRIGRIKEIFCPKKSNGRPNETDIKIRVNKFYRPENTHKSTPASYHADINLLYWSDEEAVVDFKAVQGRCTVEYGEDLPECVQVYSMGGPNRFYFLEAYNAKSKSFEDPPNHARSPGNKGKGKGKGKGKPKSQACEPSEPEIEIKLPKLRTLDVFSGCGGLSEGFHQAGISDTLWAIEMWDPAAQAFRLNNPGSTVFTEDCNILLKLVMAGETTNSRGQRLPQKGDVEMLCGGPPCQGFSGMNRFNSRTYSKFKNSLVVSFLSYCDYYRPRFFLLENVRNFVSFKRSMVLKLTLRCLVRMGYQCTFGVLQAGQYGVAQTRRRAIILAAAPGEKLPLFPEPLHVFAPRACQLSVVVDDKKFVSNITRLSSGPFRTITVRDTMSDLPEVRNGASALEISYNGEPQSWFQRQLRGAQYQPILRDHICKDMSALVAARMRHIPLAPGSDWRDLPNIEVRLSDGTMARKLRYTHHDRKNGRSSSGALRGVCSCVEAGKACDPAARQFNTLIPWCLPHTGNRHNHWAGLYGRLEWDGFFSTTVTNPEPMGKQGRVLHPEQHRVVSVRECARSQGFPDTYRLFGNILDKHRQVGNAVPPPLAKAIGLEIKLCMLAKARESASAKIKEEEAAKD
DNMT3a, sequence (Q9Y6K1 whole entry, looked up): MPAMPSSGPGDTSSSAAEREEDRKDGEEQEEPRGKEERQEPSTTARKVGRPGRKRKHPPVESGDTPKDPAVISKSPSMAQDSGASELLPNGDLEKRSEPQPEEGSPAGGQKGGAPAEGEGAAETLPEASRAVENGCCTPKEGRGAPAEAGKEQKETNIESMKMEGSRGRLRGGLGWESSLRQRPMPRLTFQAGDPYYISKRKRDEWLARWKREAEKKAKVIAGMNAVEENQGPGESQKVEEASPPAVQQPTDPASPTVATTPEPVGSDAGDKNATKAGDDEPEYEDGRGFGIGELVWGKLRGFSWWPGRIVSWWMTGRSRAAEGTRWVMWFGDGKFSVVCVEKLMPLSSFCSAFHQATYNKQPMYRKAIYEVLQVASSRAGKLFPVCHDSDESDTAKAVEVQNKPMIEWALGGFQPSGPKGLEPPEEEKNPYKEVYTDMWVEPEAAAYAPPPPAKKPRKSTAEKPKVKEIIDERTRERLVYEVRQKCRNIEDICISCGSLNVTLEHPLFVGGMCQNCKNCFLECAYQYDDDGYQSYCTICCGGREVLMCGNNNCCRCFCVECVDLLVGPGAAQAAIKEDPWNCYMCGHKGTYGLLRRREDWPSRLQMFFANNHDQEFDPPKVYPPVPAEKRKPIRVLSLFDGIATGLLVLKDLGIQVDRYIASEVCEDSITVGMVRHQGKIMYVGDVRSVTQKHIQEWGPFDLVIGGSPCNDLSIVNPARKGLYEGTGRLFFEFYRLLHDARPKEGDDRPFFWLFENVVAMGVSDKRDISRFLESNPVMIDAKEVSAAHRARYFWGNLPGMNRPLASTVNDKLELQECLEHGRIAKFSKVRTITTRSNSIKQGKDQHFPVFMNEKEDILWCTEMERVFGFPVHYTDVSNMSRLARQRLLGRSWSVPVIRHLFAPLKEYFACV

In the case of `Nc1ncnc2c1ncn2[C@@H]1O[C@H](CSCC[C@H](N)C(=O)O)[C@@H](O)[C@H]1O` [S-adenosyl homocysteine], in assay [1], 1 µM produced 95% inhibition.
For the compound `C[C@H](CCC[C@@H](C)[C@H]1CC[C@H]2[C@@H]3CC=C4C[C@@H](O)CC[C@]4(C)[C@H]3CC[C@]12C)C(=O)O` [CA, Cholestenoic acid], the figures for the IC50 on DNMT3a and at DNMT3b were 8.41 µM and 4.89 µM, respectively. Besides, in assay [2], the EC50 (usually the concentration needed to bring the measured effect to its halfway point) was found to be 1.99 µM.
